Assays:
[1] = tested on: COR-L 105 (non-small cell lung carcinoma); test: Methyl-Tetrazolium viability assay, COR-L 105; type: cell-based, human; parameters: key to MTT Average: absorbance (optical density) at 570 nm, second wavelength subtracted; settings: for MTT Average 24 h / MTT Average 48 h / MTT Average 72 h: COR-L 105, Run 3
Text: (§1) Three different viability assays were chosen to complement each other and yielded results dependent on concentration and cell line: the Methyl Tetrazolium dye assay, the Sulforhodamine B fluorescent dye assay, and the Crystal Violet dye assay.
(§2) The Methyl-Tetrazolium dye assay measures the activity of enzymes in mitochondria. The dye precursor is taken up by cells, where it undergoes reduction to the purple formazan. It measures only the mitochondrial activity and, thus, it is not always a reliable indication of whether the cells themselves are alive or dead, since even a recently dead cell has […] enzyme activity in mitochondria. Intracellular glucose concentration, pH, and time before assay all affect the measurements.
(§3) The Methyl Tetrazolium, Sulforhodamine B, and Crystal Violet assays were used to assess cell viabilities. The incubation times were 24 hours, 48 hours, and 72 hours. The Nerium oleander extract Anvirzel™ (a hot water extract of oleander obtained from Salud Integral, Honduras) was tested in concentrations ranging from 0.01 ng/mL to 10 ng/mL.
(§4) Cells were detached by trypsinization (Trypsin-0.25% EDTA, Invitrogen, 25200-072) during the logarithmic phase of culture growth and plated in 96-well plates (18.000 cells/well) (Corning, Costar 359) in a final volume of 200 μl of medium per well. […] The absorbance was measured after 24 hours, 48 hours, and 72 hours of incubation.
(§5) For the Methyl-Tetrazolium assay, the dye (Sigma, M2128; 5 mg/mL, diluted in phosphate-buffered saline) was added to each well and plates were incubated for 3 hours at 37° C. After the end of the incubation period, the medium was discarded and the cells were rinsed with phosphate-buffered saline. Finally, the formazan crystals were dissolved in dimethylsulphoxide (Sigma, D4540).
(§6) The optical density of each plate was measured on a μQuant spectrophotometer and the data were analyzed with Gen5 software (μQuant Biomolecular Spectrophotometer MQX200 and Gen5™ Microplate Data Collection & Analysis software, BioTek® Instruments. Inc, April 2008). Absorbance was measured at 570 nm for all assays and a second wavelength was measured in order to subtract noise. For the Methyl-Tetrazolium assay this second wavelength was 630 nm and for the Sulforhodamine B and Crystal Violet assays it was 690 nm.

[2] = tested on: MDA-MB 231 (human breast cancer); test: Methyl-Tetrazolium viability assay, MDA-MB 231; type: cell-based; settings: for MTT 24 h / MTT 48 h / MTT 72 h: Run 3 average
Text: as §1, §2, §3, §4, §5, §6

[3] = tested on: T47D (human breast cancer); test: Crystal Violet viability assay, T47D; type: cell-based; parameters: key: absorbance at 570 nm (crystal violet), background wavelength subtracted
Text: as §1
The Sulforhodamine B and Crystal Violet assays provide information about protein and were used to complement the Methyl-Tetrazolium dye assay. […] It is used for the quantification of cellular proteins of cultured cells. The assay using Crystal Violet, a dye that binds electrostatically to proteins and stains DNA, provides a reliable, simple assay for measuring viability of cells.
as §3, §4
For the Crystal Violet assay, the medium was removed from the 96-well plates, the plates rinsed with PBS (Sigma, P3813) and then the cells were […] by the addition of 10% formalin (MERCK, 1.04003.2500) for 20 minutes at RT. Formalin was removed and 0.25% aqueous crystal violet (Sigma, HT901), dissolved in water, was added for 10 minutes at RT. Unbound Crystal Violet was rinsed by washing with water and finally 33% acetic acid was added to dissolve the dye.
as §6

SMILES: N.N.[Cl][Pt][Cl] [cisplatin]
- MTT Average 24 h ([1]; 0.1 μg/ml CDDP): 0.056
- MTT Average 48 h ([1]; 0.1 μg/ml CDDP): 0.069
- MTT Average 72 h ([1]; 0.1 μg/ml CDDP): 0.088
- MTT Average 24 h ([1]; 1 μg/ml CDDP): 0.02
- MTT Average 48 h ([1]; 1 μg/ml CDDP): 0.018
- MTT Average 72 h ([1]; 1 μg/ml CDDP): 0.012
- MTT Average 24 h ([1]; 10 μg/ml CDDP): 0.039
- MTT Average 48 h ([1]; 10 μg/ml CDDP): 0.023
- MTT Average 72 h ([1]; 10 μg/ml CDDP): 0.01
- MTT Average 24 h ([1]; 100 μg/ml CDDP): 0.019
- MTT Average 48 h ([1]; 100 μg/ml CDDP): 0.018
- MTT Average 72 h ([1]; 100 μg/ml CDDP): 0.009
- MTT Average ([1]; Run 1, 24 h, 0.1 μg/ml CDDP): 0.083
- MTT Average ([1]; Run 1, 24 h, 1 μg/ml CDDP): 0.023
- MTT Average ([1]; Run 1, 24 h, 10 μg/ml CDDP): 0.057
- MTT Average ([1]; Run 1, 24 h, 100 μg/ml CDDP): 0.015
- MTT Average ([1]; Run 1, 48 h, 0.1 μg/ml CDDP): 0.099
- MTT Average ([1]; Run 1, 48 h, 1 μg/ml CDDP): 0.018
- MTT Average ([1]; Run 1, 48 h, 10 μg/ml CDDP): 0.023
- MTT Average ([1]; Run 1, 48 h, 100 μg/ml CDDP): 0.016
- MTT Average ([1]; Run 1, 72 h, 0.1 μg/ml CDDP): 0.056
- MTT Average ([1]; Run 1, 72 h, 1 μg/ml CDDP): 0.017
- MTT Average ([1]; Run 1, 72 h, 10 μg/ml CDDP): 0.021
- MTT Average ([1]; Run 1, 72 h, 100 μg/ml CDDP): 0.018
- MTT Average ([1]; Run 2, 24 h, 0.1 μg/ml CDDP): 0.056
- MTT Average ([1]; Run 2, 24 h, 1 μg/ml CDDP): 0.02
- MTT Average ([1]; Run 2, 24 h, 10 μg/ml CDDP): 0.039
- MTT Average ([1]; Run 2, 24 h, 100 μg/ml CDDP): 0.019
- MTT Average ([1]; Run 2, 48 h, 0.1 μg/ml CDDP): 0.069
- MTT Average ([1]; Run 2, 48 h, 1 μg/ml CDDP): 0.018
- MTT Average ([1]; Run 2, 48 h, 10 μg/ml CDDP): 0.023
- MTT Average ([1]; Run 2, 48 h, 100 μg/ml CDDP): 0.018
- MTT Average ([1]; Run 2, 72 h, 0.1 μg/ml CDDP): 0.088
- MTT Average ([1]; Run 2, 72 h, 1 μg/ml CDDP): 0.012
- MTT Average ([1]; Run 2, 72 h, 10 μg/ml CDDP): 0.01
- MTT Average ([1]; Run 2, 72 h, 100 μg/ml CDDP): 0.009
- MTT 24 h Average ([2]; Run 1, 0.1 μg/ml CDDP): 0.019
- MTT 48 h Average ([2]; Run 1, 0.1 μg/ml CDDP): 0.002
- MTT 72 h Average ([2]; Run 1, 0.1 μg/ml CDDP): 0.04
- MTT 24 h Average ([2]; Run 1, 1 μg/ml CDDP): 0.007
- MTT 48 h Average ([2]; Run 1, 1 μg/ml CDDP): 0.004
- MTT 72 h Average ([2]; Run 1, 1 μg/ml CDDP): 0.006
- MTT 24 h Average ([2]; Run 1, 10 μg/ml CDDP): 0.015
- MTT 48 h Average ([2]; Run 1, 10 μg/ml CDDP): 0.007
- MTT 72 h Average ([2]; Run 1, 10 μg/ml CDDP): 0.015
- MTT 24 h Average ([2]; Run 1, 100 μg/ml CDDP): 0.008
- MTT 48 h Average ([2]; Run 1, 100 μg/ml CDDP): 0.008
- MTT 72 h Average ([2]; Run 1, 100 μg/ml CDDP): 0.006
- MTT 24 h Average ([2]; Run 2, 0.1 μg/ml CDDP): 0.044
- MTT 48 h Average ([2]; Run 2, 0.1 μg/ml CDDP): 0.063
- MTT 72 h Average ([2]; Run 2, 0.1 μg/ml CDDP): 0.106
- MTT 24 h Average ([2]; Run 2, 1 μg/ml CDDP): 0.009
- MTT 48 h Average ([2]; Run 2, 1 μg/ml CDDP): 0.007
- MTT 72 h Average ([2]; Run 2, 1 μg/ml CDDP): 0.005
- MTT 24 h Average ([2]; Run 2, 10 μg/ml CDDP): 0.039
- MTT 48 h Average ([2]; Run 2, 10 μg/ml CDDP): 0.049
- MTT 72 h Average ([2]; Run 2, 10 μg/ml CDDP): 0.07
- MTT 24 h Average ([2]; Run 2, 100 μg/ml CDDP): 0.008
- MTT 48 h Average ([2]; Run 2, 100 μg/ml CDDP): 0.006
- MTT 72 h Average ([2]; Run 2, 100 μg/ml CDDP): 0.002
- MTT 24 h ([2]; 0.1 μg/ml CDDP): 0.083
- MTT 48 h ([2]; 0.1 μg/ml CDDP): 0.035
- MTT 72 h ([2]; 0.1 μg/ml CDDP): 0.046
- MTT 24 h ([2]; 1 μg/ml CDDP): 0.013
- MTT 48 h ([2]; 1 μg/ml CDDP): 0.008
- MTT 72 h ([2]; 1 μg/ml CDDP): 0.008
- MTT 24 h ([2]; 10 μg/ml CDDP): 0.046
- MTT 48 h ([2]; 10 μg/ml CDDP): 0.057
- MTT 72 h ([2]; 10 μg/ml CDDP): 0.068
- MTT 24 h ([2]; 100 μg/ml CDDP): 0.012
- MTT 48 h ([2]; 100 μg/ml CDDP): 0.012
- MTT 72 h ([2]; 100 μg/ml CDDP): 0.01
- CVE Average ([3]; T47D Run 1, 24 h, 0.1 μg/ml CDDP): 0.64
- CVE Average ([3]; T47D Run 1, 24 h, 10 μg/ml CDDP): 0.417
- CVE Average ([3]; T47D Run 1, 48 h, 0.1 μg/ml CDDP): 0.67
- CVE Average ([3]; T47D Run 1, 48 h, 1 μg/ml CDDP): 0.369
- CVE Average ([3]; T47D Run 1, 48 h, 10 μg/ml CDDP): 0.518
- CVE Average ([3]; T47D Run 1, 48 h, 100 μg/ml CDDP): 0.319
- CVE Average ([3]; T47D Run 1, 72 h, 0.1 μg/ml CDDP): 0.654
- CVE Average ([3]; T47D Run 1, 72 h, 1 μg/ml CDDP): 0.347
- CVE Average ([3]; T47D Run 1, 72 h, 10 μg/ml CDDP): 0.34
- CVE Average ([3]; T47D Run 1, 72 h, 100 μg/ml CDDP): 0.293
- CVE Average ([3]; T47D Run 2, 24 h, 1 μg/ml CDDP): 0.385
- CVE Average ([3]; T47D Run 2, 24 h, 10 μg/ml CDDP): 0.597
- CVE Average ([3]; T47D Run 2, 24 h, 100 μg/ml CDDP): 0.317
- CVE Average ([3]; T47D Run 2, 48 h, 0.1 μg/ml CDDP): 0.45
- CVE Average ([3]; T47D Run 2, 48 h, 1 μg/ml CDDP): 0.223
- CVE Average ([3]; T47D Run 2, 48 h, 10 μg/ml CDDP): 0.315
- CVE Average ([3]; T47D Run 2, 72 h, 0.1 μg/ml CDDP): 1.124
- CVE Average ([3]; T47D Run 2, 72 h, 1 μg/ml CDDP): 0.33
- CVE Average ([3]; T47D Run 2, 72 h, 10 μg/ml CDDP): 0.334
- CVE Average ([3]; T47D Run 2, 72 h, 100 μg/ml CDDP): 0.381
- CVE Average ([3]; T47D Run 3, 24 h, 1 μg/ml CDDP): 0.4
- CVE Average ([3]; T47D Run 3, 24 h, 10 μg/ml CDDP): 0.488
- CVE Average ([3]; T47D Run 3, 24 h, 100 μg/ml CDDP): 0.385
- CVE Average ([3]; T47D Run 3, 48 h, 0.1 μg/ml CDDP): 0.778
- CVE Average ([3]; T47D Run 3, 48 h, 1 μg/ml CDDP): 0.435
- CVE Average ([3]; T47D Run 3, 48 h, 100 μg/ml CDDP): 0.544
- CVE Average ([3]; T47D Run 3, 72 h, 0.1 μg/ml CDDP): 0.722
- CVE Average ([3]; T47D Run 3, 72 h, 1 μg/ml CDDP): 0.223
- CVE Average ([3]; T47D Run 3, 72 h, 10 μg/ml CDDP): 0.31
- CVE Average ([3]; T47D Run 3, 72 h, 100 μg/ml CDDP): 0.22

Reference: patent US20190343908A1, “Therapeutic Combination for the Treatment of Cancer” (Nerium Biotechnology Inc., priority 2011, published 2019)
